Results on 3 compounds are retold here after US20220401585A1, “A UROKINASE PLASMINOGEN ACTIVATOR RECEPTOR-TARGETING PEPTIDE” (RIGSHOSPITALET, priority 2019, published 2022).

Primed or numbered codes have the meaning given here. [ ]: non-standard residue; d: D form. Cha = N[C@@H](CC1CCCCC1)C(=O)O; IRDye800CW′ = not defined here; AEEA = NCCOCCOCC(=O)O

Data set [1] deals with orthotopic GBM (U-87 MG-luc2 xenograft). The data set is described as follows: NIR fluorescence imaging of orthotopic GBM (dynamic imaging, TBR and MFI). In kind it is in vivo, mice. On the procedure: All experimental procedures in animals were carried out in accordance with the approval by The Animal Experiments Inspectorate, Denmark. 7-10-week-old female nude mice (strain: Rj:NMRI-Foxn1nu/nu, JANVIER LABS, France) were orthotopically xenografted with U-87 MG-luc2 cells. Prior to any surgical procedure, the animals were anesthetized with Hypnorm (0.315 mg/ml fentanyl, 10 mg/ml fluanisone)+Midazolam (5 mg/ml)+sterile water in the ratio 1:1:2 by subcutaneous injection of 0.01 ml/g body weight of the solution.
The orthotopic GBM tumor model was established by inoculation of 500.000 cells in 10 μL ice cold PBS in the right hemisphere (1.5 mm lateral and 0.5 mm posterior to the bregma at 2 mm depth) using a stereotaxic frame (KOPF INSTRUMENTS, Tujunga, Calif., USA) with the automated microinjection pump UMP3 (WPI, Sarasota, Fla., USA). The cells were injected over 5 min with the syringe kept in place for further 3 min before retraction. Tumor growth was subsequently monitored on MRI with the BioSpec 7T (Bruker, Billerica, Mass., USA) with axial and coronal T2-weighted sequences. When the tumor size reached 2-17 mm^3, the animals were included in the fluorescence imaging protocol.
All image acquisition was performed with the Fluobeam system with (Fluosoft version: 2.2.1) (Fluoptics, Grenoble, France). To characterize the in vivo biodistribution and tumor imaging properties, IRDye800-AE344 was administered through tail vein injection into all the GBM bearing mice (n=35) at four different doses: 1 nmol, 3 nmol, 6 nmol, and 12 nmol. Two mice were sacrificed for each time point and the brain was removed and cross sectioned through the tumor for imaging. […] Accordingly, image acquisition was performed at following time points after injection:
1 nmol: 0.5 h, 1 h, and 2 h
3 nmol: 1 h, 2 h, 3 h, and 5 h
6 nmol: 1 h, 3 h, 6 h, and 12 h
(§1) Images were analyzed and processed in ImageJ 1.52a, NIH, USA. Signal measurements were performed on the raw images generated by the Fluoptics system. Tumor signal was measured as a mean fluorescence intensity of the whole tumor and background signal was measured as the mean of a representative area with no tumor on the contralateral hemisphere. Presented pictures are contrast enhanced in ImageJ with the Contrast Enhancement (Saturated pixels: 0.3%).
Pathological assessment was used to evaluate the colocalization of the fluorescence signal and cancer cells (sens+spec). The cross sectioned brain specimens from the fluorescence imaging were either paraffin embedded for H&E and IHC staining, or cryostat sectioned for fluorescence microscopy. […]
Cryostat sectioning was performed by fixation of the specimen in Tissue-Tek O.C.T. on dry ice. The fixed tissue was sliced axially and mounted on slides for immediate fluorescence imaging.

Data set [2] has as its target T1, uPAR (Homo sapiens, UniProt Q03405). The data set is described as follows: In vivo binding specificity (competitive blocking, scrambled probe). More on the design: endogenous in cells; species or system mice. To be noted: 3 nmol, 1 h; for signal intensity compared to the active probe: orthotopic GBM. On the procedure: The target specificity to uPAR was evaluated by two different methods: competitive blocking with the uPAR targeting peptide AE120 ((DChaFsrYLWSG)2-βAK) and IRDye800 conjugated to a scrambled peptide, AE354 (IRDye800CW-Glu-Glu-NH—CH2—CH2—O—CH2—CH2—O—CH2—CO—NH—CH2—CH2—O—CH2—CH2—O—CH2—CO-Asp-Cha-Glu-(D)Ser-(D)Arg-Tyr-Leu-Glu-Ser-OH) with similar peptide length as the active peptide. The competitive blocking dose of 1.4-2.8 mg AE120 was injected intraperitoneally 15-30 min prior to intravenous injection of 3 nmol IRDye800CW-AE344 and imaged at 1 h (n=5). The scrambled peptide was administered at 3 nmol and the animals were imaged after 1 h (n=4).
as §1
Target sequence in this assay (Q03405 23-305): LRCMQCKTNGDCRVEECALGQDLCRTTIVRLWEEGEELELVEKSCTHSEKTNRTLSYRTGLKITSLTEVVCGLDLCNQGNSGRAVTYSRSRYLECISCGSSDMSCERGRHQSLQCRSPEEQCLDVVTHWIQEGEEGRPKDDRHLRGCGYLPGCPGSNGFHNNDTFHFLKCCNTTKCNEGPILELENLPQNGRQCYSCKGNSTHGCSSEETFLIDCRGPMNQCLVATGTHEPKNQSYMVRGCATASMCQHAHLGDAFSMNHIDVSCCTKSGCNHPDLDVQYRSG

Data set [3] is described as follows: Photostability under continuous laser exposure. In kind it is physicochemical. The procedure: The photostability was evaluated by a factor 2 dilution series with four samples from 0.23-1.8 nM IRDye800-AE344 in 100 μL phosphate buffered saline (PBS) placed in a black 96-well plate. The well was placed in a black box with the Fluobeam mounted in the top at a distance of 23 cm from the well plate. Image acquisition was performed at 0 min, 10 min, 15 min, 20 min, 0.5 h, 1 h, 2 h, 3 h, 6 h, 10 h, 15 h, 24 h. Each dilution sample was normalized to time point 0 and the data from all four samples were pooled.

A short description of data set [4]: Acute toxicity, liver and kidney histology. Details: species or system mice. To be noted: mouse, in vivo. From the text:
Liver and kidneys: Tissue was formalin fixed and paraffin embedded. Sections of 2-4 um thick were cut and a routine staining panel applied including: H&E, modified sirius, PAS and Masson trichome for both and additional PAS with silver for kidneys and PAS with diastase, iron, reticulin artisan and oxidised orcein for the livers. Livers were immunohistochemically stained, immunohistochemical evaluation on 3 μm thick sections was done using the CK7 antibody from Dako/Agilent, GA619 (clone OV-TL12/30) following the manufacturer's instructions. The staining took place on the Omnis from Agilent utilizing the EnVision Flex+ detection kit (GV800). The primary antibody was diluted using Antibody Diluent (Dako DM830) and were incubated for 20 minutes. The sections were counterstained with hematoxylin.

Another data set has as its system orthotopic GBM. The data set is described as follows: Fluorescence-guided resection. The format is in vivo, mouse. The note with it: 6 nmol at 3 h, EleVision IR system. The procedure: Preoperatively, the tumor was visible on WL and NIR images (FIG. 15 upper panel). The surgeon performed the resection only assisted by WL until the surgeon considered all tumor tissues was removed. […] A video of fluorescence-guided surgery is also available in the online supplementary materials.
As should be understood from above, in FIG. 15 there is shown fluorescence-guided surgery (6 nmol IRDye800CW-AE344 at 3 h) performed with the EleVision™ IR system. Upper panel: Images were acquired prior to surgery. Middle panel: Pictures were acquired following surgery in white light and clearly visualizes remaining tumor tissue. The signal is more intense compared to upper panel and is due to the fact that the remaining tumor is now more exposed.

Data set [5] has as its target T1, uPAR. The data set can be described thus: SPR inhibition of uPAR wt binding to immobilized pro-uPA. To be noted: inhibition of uPAR binding to immobilized pro-uPA S356A, 20° C. On the procedure:
Covalent immobilization of purified human prouPA^S356A—was accomplished by injecting 12.5 μg/ml protein dissolved in 10 mM sodium acetate (pH 5.0) over a CM5 chip that had been pre-activated with NHS/EDC (N-ethyl-N′[3-[…])propyl]-carbodiimide), aiming at a surface density of >5000 resonance units (RU) corresponding to 100 fmols/mm^2. After coupling the sensorchip was deactivated with 1 M ethanolamine. Binding of purified human uPAR as analyte was measured from 4 nM to 0.25 nM at 20° C. using 10 mM HEPES, 150 mM NaCl, 3 mM EDTA (pH 7.4) containing 0.05% (v/v) surfactant P20 as running buffer at a flow rate of 50 μl/min. […]
Surface plasmon resonance (SPR) was applied to determine the IC50-value of IRDye800-AE344 on the uPAR·uPA interaction in solution using a Biacore 3000 instrument essentially as described. […] A standard curve was measured in parallel (2-fold dilution of uPAR covering 0.06 nM to 2 nM) including one repeated concentration point at the end to validate the biological integrity of the sensor chip. […] The parent nonamer peptide antagonist AE105 (Asp-Cha-Phe-D-Ser-D-Arg-Tyr-Leu-Trp-Ser-OH) was analyzed in parallel as positive control and the closed uPAR^H47C-N259C was used as negative control as its uPA binding cavity cannot accommodate AE105.
Target sequence in this assay (Q03405 23-305 limits assumed): as the sequence (Q03405 23-305) above

For the compound `CC(C)C[C@H](NC(=O)[C@H](Cc1ccc(O)cc1)NC(=O)[C@@H](CCCNC(=N)N)NC(=O)[C@@H](CO)NC(=O)[C@H](Cc1ccccc1)NC(=O)[C@H](CC1CCCCC1)NC(=O)[C@H](CC(=O)O)NC(=O)COCCOCCNC(=O)COCCOCCNC(=O)[C@H](CCC(=O)O)NC(=O)[C@H](CCC(=O)O)NC(=O)CCCCC[N+]1=C(/C=C/C2=C(Oc3ccc(S(=O)(=O)O)cc3)C(=C/C=C3/N(CCCCS(=O)(=O)[O-])c4ccc(S(=O)(=O)O)cc4C3(C)C)/CCC2)C(C)(C)c2cc(S(=O)(=O)O)ccc21)C(=O)N[C@@H](Cc1c[nH]c2ccccc12)C(=O)N[C@@H](CO)C(=O)O` [IRDye800CW-AE344, IRDye800CW-Glu-Glu-O2Oc-O2Oc-Asp-Cha-Phe-D-Ser-D-Arg-Tyr-Leu-Trp-Ser-OH], the “background MFI” value in data set [1] (6 nmol, 1 h) is 24 a.u; in data set [1] (6 nmol, 3 h) it was 11 a.u. Moreover, the “decrease in background MFI” value in data set [1] (6 nmol, from 1 h to 3 h) stood at 54%. The “visualization of orthotopic GBM through intact brain on NIR imaging” value in data set [1] (in vivo cancer imaging) is on record as “clearly visualized”. Moreover, the results for the “normalized TBR (ref: active probe)” value on uPAR [2] (blocked with AE120) and on uPAR [2] (probe alone) were 0.70 and 1.00, respectively. Moreover, the “tumor-to-background ratio (TBR)” value on uPAR [2] (blocked with AE120) was 4.6; at uPAR [2] (probe alone), 6.6. The “signal intensity compared to the active probe” value at uPAR [2] (competitive blocking with AE120) is given as “lower signal intensity”. The preserved fluorescence intensity in data set [3] (after continuous laser exposure for 1 h) is 84%; in data set [3] (after continuous laser exposure for 2 h), 62%. Also, the “pathological assessment of the kidneys and the liver” value in data set [4] is given as “no pathological findings”. For the same compound, in the data set on orthotopic GBM, the “outcome of fluorescence-guided surgery” value is “complete tumor resection”.
Regarding “IRDye800CW-Glu-Glu-NH—CH2—CH2—O—CH2—CH2—O—CH2—CO—NH—CH2—CH2—O—CH2—CH2—O—CH2—CO-Asp-Cha-Glu-(D)Ser-(D)Arg-Tyr-Leu-Glu-Ser-OH ({IRDye800CW′}-EE[AEEA][AEEA]D[Cha]E[dS][dR]YLES-OH) [IRDye800CW-AE354, reference compound]”, in the data set with uPAR [2] (probe alone), the “normalized TBR values (FIG. 16C)” value was 3.4 and the “signal intensity compared to the active probe” value is listed as “lower signal intensity”.
On uPAR [5], EE-O2Oc-O2Oc-DChaFsrYLWS-NH2 [AE347] gave a half-maximal inhibitory concentration (IC50) of 5.7 ± 0.5 nM.
